Activity and inhibition in vivo data for 2 compounds are collected here from ChEMBL document CHEMBL1147310, “Anti-inflammatory compounds from Sideritis javalambrensis n-hexane extract” (1989).

Experiment [1] deals with Mus musculus. The experiment can be described thus: Antiinflammatory activity in po dosed albino mouse assessed as inhibition of carrageenan-induced paw edema administered 1 hr before carrageenan challenge measured. Format: functional, organism-based. Background: The carrageenan paw model is a standard test of acute inflammation.
Experiment [2] concerns Mus musculus. Briefly: Antiinflammatory activity in albino mouse assessed as inhibition of carrageenan-induced paw edema at 125 mg/kg, po administered 1 hr before carrageenan challenge measured after 3 to 7 hrs. Format: functional, organism-based. The arrangement: dose 125 mg/kg.
For experiment [3], the system named is Mus musculus. The experiment can be described thus: Antiinflammatory activity in albino mouse assessed as inhibition of carrageenan-induced paw edema at 80 mg/kg, ip administered 1 hr before carrageenan challenge measured after 3 hrs. The note with it: route intraperitoneal. Format: functional.
Experiment [4] deals with Mus musculus. Briefly: Antiinflammatory activity in albino mouse assessed as inhibition of carrageenan-induced paw edema at 75 mg/kg, ip administered 1 hr before carrageenan challenge measured after 3 to 7 hrs. Format: functional. The conditions noted are these: route intraperitoneal.
The test system of experiment [5] is Mus musculus. The experiment can be described thus: Antiinflammatory activity in albino mouse assessed as inhibition of carrageenan-induced paw edema at 250 mg/kg, po administered 1 hr before carrageenan challenge measured after 3 hrs. Format: functional.
Experiment [6] has as its system Mus musculus. The experiment can be described thus: Antiinflammatory activity in albino mouse assessed as inhibition of carrageenan-induced paw edema at 100 mg/kg, po administered 1 hr before carrageenan challenge measured after 3 hrs. Format: functional.

The source made the active and inactive calls. No cut-off for these calls is given here.

As to `C=C[C@@]1(CO)CC[C@H]2[C@]3(C)CCCC(C)(C)[C@H]3CC[C@]2(C)O1`, the Activity result in experiment [1] is “Dose-dependent effect”. Also, the result in experiment [2] was Active. The inhibition in vivo at 80 mg/kg in experiment [3] came to 63.5%. Further, in experiment [4], the inhibition in vivo at 75 mg/kg is 60.1%. Also, the inhibition in vivo at 250 mg/kg in experiment [5] worked out at 55.8%.
As to `CCCCC1C(=O)N(c2ccccc2)N(c2ccccc2)C1=O` [PHENYLBUTAZONE], the inhibition in vivo at 100 mg/kg in experiment [6] turned out to be 47.7%.

By inhibition in vivo is commonly meant the share of the control response that was lost under treatment.
